SMILES strings stand for the structures.

In patent publication US20090182033A1, “Cyclic Amine Derivatives and Their Uses” (ARGENTA DISCOVERY LTD., priority 2005, published 2009) one finds Ki data, which are given here for one compound.

The target of this test is T1, M3 muscarinic receptor (Homo sapiens, UniProt P20309).
T1 construct: purchased
Briefly: Muscarinic receptor radioligand binding assay ([3H]-NMS). Conditions: cell membranes expressing the human muscarinic receptors, 3 hours incubation, read-out: binding affinity Ki. How it is done:
The inhibitory effects of compounds of the present invention at the M3 muscarinic receptor were determined by the following binding assays:
Radioligand binding studies utilising [^3H]-N-methyl scopolamine ([^3H]-NMS) and commercially available cell membranes expressing the human muscarinic receptors (M2 and M3) were used to assess the affinity of muscarinic antagonists for M2 and M3 receptors. Membranes in TRIS buffer were incubated in 96-well plates with [^3H]-NMS and M3 antagonist at various concentrations for 3 hours. Membranes and bound radioligand were then harvested by filtration and allowed to dry overnight. Scintillation fluid was then added and the bound radioligand counted using a Can berra Packard Topcount scintillation counter

T1 sequence (P20309 whole entry): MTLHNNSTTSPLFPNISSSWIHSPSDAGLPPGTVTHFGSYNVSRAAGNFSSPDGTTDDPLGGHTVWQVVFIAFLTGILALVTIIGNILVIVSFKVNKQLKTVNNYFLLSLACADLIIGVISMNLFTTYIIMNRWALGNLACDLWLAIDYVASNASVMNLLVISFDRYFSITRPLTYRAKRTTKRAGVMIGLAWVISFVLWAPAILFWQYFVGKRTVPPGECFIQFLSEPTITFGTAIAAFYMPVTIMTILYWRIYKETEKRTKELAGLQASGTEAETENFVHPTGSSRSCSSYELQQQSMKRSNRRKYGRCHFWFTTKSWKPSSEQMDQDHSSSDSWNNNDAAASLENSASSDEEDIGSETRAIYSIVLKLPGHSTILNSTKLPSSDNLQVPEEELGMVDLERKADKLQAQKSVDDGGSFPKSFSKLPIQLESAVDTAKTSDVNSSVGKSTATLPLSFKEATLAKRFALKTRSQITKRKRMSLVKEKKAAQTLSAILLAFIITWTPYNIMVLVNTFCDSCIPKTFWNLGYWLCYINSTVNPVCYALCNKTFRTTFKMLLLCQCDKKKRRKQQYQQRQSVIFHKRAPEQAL

For `C[N+](C)(CCCc1ccccc1)C1CC2CCC1C2OCc1ccccc1` [Example 6, Anti (1S, 2S) (7-benzyloxybi-cyclo[2.2.1]hept-2-yl)-dimethyl-(3-phenyl-propyl)-ammonium bromide], the Ki was below 100 nM.

The term Ki denotes a dissociation constant, usually derived from enzyme kinetics or from competition with a known ligand.
